Data set [1] is described as follows: Single dose rhesus macaque PK, subcutaneous aqueous suspension, plasma EFdA by LC-MS/MS.
Description: The aqueous suspension formulations were derived from 0.25;% CMC-Na and 0.1;%/0.5% TWEEN-80 with equivalent concentration of 116 mg/mL and 319 mg/mL of EFdA for prodrug 5 and EFdA respectively.
The nature of data set [2]: Aqueous solubility (pH 7.4). To be noted: aqueous medium at pH 7.4, pH 7.4, aqueous buffer.
Data set [3] can be described thus: Single dose rat PK, subcutaneous aqueous suspension, plasma EFdA by LC-MS/MS. To be noted: SC; for Cmax compared with EFdA itself / time with plasma levels of EFdA above LLOQ: single dose, 10 mg/kg equivalent of EFdA, 4 mg/mL, 0.5% CMC-Na/0.5% TWEEN-80. The protocol: Animals (Male SD rats ˜200-250 g and Male rhesus macaques ˜2-3 kg) were obtained from an approved vendor (SLAC Laboratory Animal Co. Ltd., Shanghai, China and/or Topgene Biotechnology, Wuhan city, Hubei Province, China).
Animals were fasted at least 12 hours prior to the administration. All animals had access to Certified Rodent and non-Rodent Diet (Catalog #M01-F, SLAC Laboratory Animal Cl. Ltd., Shanghai, China) ad libitum 4 hours post dosing.
The formulations were prepared on the day of dosing. Animals were dosed within four hours after the formulation is prepared. Two 20 μL aliquots of each formulation were removed from each of the formulation solutions, transferred into 1.5 mL of polypropylene microcentrifuge tubes and run dose validation by LC/UV or LC-MS/MS.
For SC dosing, the dose formulation was administered via subcutaneous injection following facility SOPs.
Approximately 200 μL blood was collected from saphenous vein at each time point for rats and 0.5 mL for rhesus macaques. All blood samples were transferred into microcentrifuge tubes containing 4 μL of K2EDTA (0.5M) as anti-coagulant and placed on wet ice until processed for plasma.
Blood: Blood samples were processed for plasma by centrifugation at approximately 4° C., 3000 g 15 min within half an hour of collection. Plasma samples was stored in polypropylene tubes, quick frozen over dry ice and kept at −70±10° C. until LC/MS/MS analysis.
If the carryover couldn't meet the criteria, then the percent of carryover should be estimated following in-house bioanalytical SOP.
Plasma concentration versus time data was analyzed by non-compartmental approaches using the Phoenix WINNONLIN 6.3 software program. Cmax, Tmax, T1/2, AUC(0-t), AUC(0-inf), MRT(0-t), MRT(0-inf), % F and graphs of plasma concentration versus time profile were reported.
Several prodrugs including EFdA (1) as a control were subjected to a single dose rat PK studies via subcutaneous route of administration. All were injected with equivalent doses of 10 mg/kg and concentration of 4 mg/mL of EFdA as an aqueous suspension formulation derived from 0.5% CMC-Na and 0.5% TWEEN-80.

Setting [4] is: male, rhesus monkey, plasma, sc, 50 mg/kg.

The record followed here is patent publication US20220323476A1, “ANTIVIRAL PRODRUGS AND FORMULATIONS THEREOF” (priority 2019, published 2022).

With `C#C[C@]1(CO)O[C@@H](n2cnc3c(N)nc(F)nc32)C[C@@H]1O` [Compound 1, (2R,3S,5R)-5-(6-amino-2-fluoro-9H-purin-9-yl)-2-ethynyl-2-(hydroxymethyl) tetrahydrofuran-3-ol], in data set [1] (setting [4]), the AUC(0-inf) (usually the area under the concentration-time curve extrapolated to infinity) is 135 ± 22.7 µM·h and the half-life (in general, how long it takes for the measured level to halve) is 69 ± 14 h.
Consider `C#C[C@]1(COC(=O)CN)O[C@@H](n2cnc3c(N)nc(F)nc32)C[C@@H]1OC(=O)CN` [Compound 14], for which the solubility (as a rule, the concentration that dissolves in the medium under given conditions) in data set [2] is above 106000 µg/mL.
Turning to `C#C[C@]1(COC(=O)Cc2ccccc2)O[C@@H](n2cnc3c(N)nc(F)nc32)C[C@@H]1OC(=O)Cc1ccccc1` [Compound 5, (2R,3S,5R)-5-(6-amino-2-fluoro-9H-purin-9-yl)-2-ethynyl-2-((2-phenylacetoxy)methyl) tetrahydrofuran-3-yl 2-phenylacetate], the “time with plasma levels of EFdA above LLOQ” value (shortened to “time with plasma levels”) in data set [1] (rhesus macaque, SC, single dose, 50 mg/kg equivalent of EFdA, 116 mg/mL) was “more than a month”. Further, in data set [3], the “Cmax compared with EFdA itself” value was “much lower than EFdA itself” and the “time with plasma levels” value was “more than a week”. In data set [2], this molecule returned a solubility below 2 µg/mL.
Turning to `C#C[C@]1(COC(=O)C(C)C)O[C@@H](n2cnc3c(N)nc(F)nc32)C[C@@H]1OC(=O)C(C)C` [Compound 2, (2R,3S,5R)-5-(6-amino-2-fluoro-9H-purin-9-yl)-2-ethynyl-2-((isobutyryloxy)methyl) tetrahydrofuran-3-yl isobutyrate], in data set [3], the “Cmax compared with EFdA itself” value is given as “much lower than EFdA itself” and the “time with plasma levels” value is on record as “more than a week”.
As to `C#C[C@]1(COC(=O)C(CC)CC)O[C@@H](n2cnc3c(N)nc(F)nc32)C[C@@H]1OC(=O)C(CC)CC` [Compound 3, (2R,3S,5R)-5-(6-amino-2-fluoro-9H-purin-9-yl)-2-(((2-ethylbutanoyl)oxy)methyl)-2-ethynyltetrahydrofuran-3-yl 2-ethylbutanoate], the “half life and mean residence life compared with EFdA” value in data set [3] (100 mg/kg equivalent dose, 120 mg/mL (prodrug 3) vs 319 mg/mL (EFdA)) was “Enhanced”. In data set [3], the “Cmax compared with EFdA itself” value is given as “much lower than EFdA itself” and the “time with plasma levels” value is on record as “more than a week”. For the same molecule, the solubility in data set [2] was below 2 µg/mL.
